# System: M. tuberculosis H37Rv
# Assay type: cell-based, Mycobacterium tuberculosis
# Details: for frequency of spontaneous resistance: M. tuberculosis H37Rv, 10× the MIC
Structure (SMILES),resistance range of mutants above the MIC level of the parental strain,frequency of spontaneous resistance,cross-resistance of mutants resistant to 44 and 52
COc1ccc(C(=O)Nc2nc(-c3ccccn3)cs2)cc1 [Compound 44],2–8 fold,~ 10^−5,–
O=C(Nc1nc(-c2ccccn2)cs1)c1cccc(Br)c1 [Compound 52],2–8 fold,~ 10^−5,–
"CCc1cc(C(N)=S)ccn1 [ethionamide, reference compound]",–,–,not to be cross-resistant

# Reference: paper PMC3816974 (Bioorganic & medicinal chemistry, 2013)
